Some test systems named below: NCI-H23; NCI-H522; MDA-MB-435; HT-29; OVCAR-4; MDA-N; HOP-62; TK-10; HCC 2998; SF-295; OVCAR-8; MOLT-4; UO-31; CAKI-1; 786-0; IGROV-1; CCRF-CEM; SK-OV-3.
Experiment in all cases: NCI tumour cell line growth inhibition, 48 h

Here are results for five molecules from ChEMBL document CHEMBL1201862, “PubChem BioAssay data set” (2004).

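Interpolation was linear, between the two tested concentrations surrounding the appropriate level; five concentrations were tested over 48 hours in 96-well plates. GI50 is the concentration that inhibits growth by half.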 The source made the active and inactive calls. No stated cut-off is given here; in the data, active = GI50 up to about 1.1 µM and inactive = higher. Peptide text beside a SMILES is read from it. * marks the point of attachment. Boc = CC(C)(C)OC(=O)*; OtBu = CC(C)(C)O*

As for `CC(=O)OC1CCC2(C)C(CCC3C2CC(=O)C2(C)C3CC(N3CC3)C2C(C)=O)C1` (stereo unspecified), the GI50 in the assay on NCI-H23 is 16.7 µM (inactive); with NCI-H522 it was 12.2 µM (inactive); in the assay on MDA-MB-435, 17.9 µM (inactive); with HT-29 it was 22.6 µM (inactive); with OVCAR-4, 19.8 µM (inactive); in the assay with MDA-N, 21.8 µM (inactive). The GI50 in the assay with HOP-62 was 24.5 µM (inactive); in the assay on TK-10, 19.6 µM (inactive); with HCC 2998, 15.4 µM (inactive); with SF-295, 5.71 µM (inactive); in the assay on OVCAR-8, 14 µM (inactive); with MOLT-4, 2.11 µM (inactive). Also, the GI50 was 18 µM (inactive) in the assay on UO-31, 16.1 µM (inactive) in the assay on CAKI-1, 18.6 µM (inactive) in the assay on 786-0 and 13.6 µM (inactive) in the assay with IGROV-1.
Turning to `Nc1cccc(/C=C/C(=O)N2CCN(CCOC(c3ccccc3)c3ccccc3)CC2)c1`, the GI50 in the assay on NCI-H23 was 18.5 µM (inactive); in the assay with NCI-H522, 15 µM (inactive); in the assay on MDA-MB-435 it was 16.3 µM (inactive); with HT-29 it was 8.2 µM (inactive); in the assay with OVCAR-4, 12.4 µM (inactive); with MDA-N, 17.8 µM (inactive). The GI50 in the assay on CCRF-CEM was 10 µM (inactive); in the assay with HOP-62, 17.7 µM (inactive); with TK-10, 15 µM (inactive); with SF-295, 17.3 µM (inactive); in the assay on OVCAR-8 it was 17.8 µM (inactive); in the assay on MOLT-4 it was 5.42 µM (inactive). The GI50 in the assay with UO-31 is 16.9 µM (inactive); in the assay on CAKI-1, 18.6 µM (inactive); in the assay on 786-0 it was 16.7 µM (inactive); with SK-OV-3 it was 16.5 µM (inactive); in the assay on IGROV-1, 18.2 µM (inactive).
As for `CC(C)(C)OC(=O)CC(NC(=O)OC(C)(C)C)C(=O)NC(Cc1ccccc1)C(N)=O` (stereo unspecified) (Boc-Asp(OtBu)-Phe-NH2; configuration not given here), the GI50 in the assay on NCI-H23, with NCI-H522, in the assay with MDA-MB-435, with HT-29, in the assay on OVCAR-4 and in the assay with MDA-N was > 100 µM (inactive) throughout. In addition, the GI50 in the assay on CCRF-CEM, in the assay with HOP-62, in the assay on TK-10, in the assay on SF-295, with OVCAR-8 and in the assay with UO-31 was > 100 µM (inactive) each time. Also, the GI50 in the assay with CAKI-1, in the assay on 786-0, in the assay with SK-OV-3 and in the assay on IGROV-1 was > 100 µM (inactive) throughout.
`CC(C)N(C(=O)c1ccc(NCc2cc(O)ccc2O)cc1)C(C)C`: the GI50 in the assay with NCI-H23 is 17.9 µM (inactive); in the assay with NCI-H522 it was 1.59 µM (inactive); in the assay on MDA-MB-435, 17.1 µM (inactive); with HT-29 it was 18 µM (inactive); in the assay on OVCAR-4 it was 15.1 µM (inactive); in the assay with MDA-N, 17.7 µM (inactive). In addition, the GI50 was 3.08 µM (inactive) in the assay on CCRF-CEM; 25.5 µM (inactive) with HOP-62; 15.6 µM (inactive) with TK-10; 21.1 µM (inactive) with SF-295; 14.4 µM (inactive) in the assay on OVCAR-8; 15.2 µM (inactive) in the assay on MOLT-4. In addition, the GI50 in the assay with UO-31 is 9.44 µM (inactive); in the assay with CAKI-1, 14.2 µM (inactive); with 786-0, 13 µM (inactive); in the assay with SK-OV-3, 35.3 µM (inactive); in the assay on IGROV-1, 17.7 µM (inactive).
For `COC1(OC)CCCCCCCCC(OC)(OC)CCCCCCCC1`, the GI50 with NCI-H23, with NCI-H522, in the assay on MDA-MB-435, in the assay on HT-29, in the assay with MDA-N and with HOP-62 was > 100 µM (inactive) in each case. Also, the GI50 was > 100 µM (inactive) in the assay with TK-10; > 100 µM (inactive) in the assay with HCC 2998; > 100 µM (inactive) in the assay on SF-295; > 100 µM (inactive) in the assay with OVCAR-8; 0.553 µM (active) in the assay on UO-31; > 100 µM (inactive) in the assay on CAKI-1. Moreover, the GI50 in the assay on 786-0, in the assay with SK-OV-3 and in the assay on IGROV-1 was > 100 µM (inactive) in each case.
